Patent US10414721B1, “Inhibitor of endocannabinoid cellular reuptake” (University of Bern, priority 2018, dated 2019)

Assays:
ABHD6 = target: T1, ABHD6 (Mus musculus, UniProt Q8R2Y0); assay: ABHD6 activity (ABPP and radioactivity-based hydrolytic assays); type: biochemical; conditions: ABPP in mouse brain homogenate and hydrolytic assays
T1 construct: membrane preparations obtained from mouse brains; from tissue; host or cells: mouse brain membranes
Procedure: (§1) ABPP experiments were performed using membrane preparations obtained from mouse brains as described earlier.
FAAH, ABHDs, MAGL and COX-2 activity assays were performed using cell homogenates, human recombinant enzymes and mouse, rat and pig brain homogenates as previously described.

major serine hydrolases [1] = assay: Activity-based protein profiling (ABPP) in mouse brain membranes; type: biochemical; conditions: membranes from mouse brain
Procedure: as §1

[2] = 14C-WOBE437 saturation binding to mouse brain membranes; conditions: binding kinetics, high affinity site; read-out: affinity for membrane binding site
Procedure: In addition to their effects on AEA uptake, the inhibition of FAAH was thoroughly investigated for all nanomolar inhibitors. […] The lack of significant FAAH inhibition by WOBE437 was established in different assay systems using human recombinant enzyme, cell and brain homogenates. […] Importantly, WOBE437 (1 μM) inhibited AEA uptake also in primary mouse cortical neurons by 50% after 2-7 min of incubation with a smaller inhibition (20-35%) upon longer incubation (10-20 min, FIG. 1F). […] In Neuro2a cells, incubation with WOBE437 (5 μM) for 2 and 5 min reduced overall uptake by 40%. (FIG. 1G). […] Then cells were treated with radiolabeled ^14C-WOBE437 to investigate the cellular penetration of the compound. In U937 cells, the vast majority of the radioactive signal was collected in the extracellular and membrane-bound fractions (75-90%), with negligible amounts (5-9%) detected in the intracellular fraction (FIGS. 2A-D). […] In order to further investigate this point, ^14C-WOBE437 was applied to membrane preparations generated in-house from mouse brain and U937 cells. […] The Kd values are in line with the IC50 values shown in the functional AEA uptake assays in Neuro2a and U937 cells (FIGS. 1C and 1D). In further experiments, 10 nM of ^14C-WOBE437 was co-incubated with different concentrations of AEA and U937 membranes. […] Furthermore, the endocannabinoids AEA and noladin ether and the AEA uptake inhibitor OMDM-2 could compete with ^14C-WOBE437 binding in brain and U937 membranes. […] Secondary plots of the slope (Kmapp/Vmaxapp vs. [WOBE437]) and intercept (1/Vmaxapp vs. [WOBE437]) confirmed the competitive inhibition of AEA uptake.

CB2 receptor = CB2 receptor (Homo sapiens, UniProt P34972); assay: CB2 receptor binding assay
Chain of CB2 receptor (P34972 whole entry): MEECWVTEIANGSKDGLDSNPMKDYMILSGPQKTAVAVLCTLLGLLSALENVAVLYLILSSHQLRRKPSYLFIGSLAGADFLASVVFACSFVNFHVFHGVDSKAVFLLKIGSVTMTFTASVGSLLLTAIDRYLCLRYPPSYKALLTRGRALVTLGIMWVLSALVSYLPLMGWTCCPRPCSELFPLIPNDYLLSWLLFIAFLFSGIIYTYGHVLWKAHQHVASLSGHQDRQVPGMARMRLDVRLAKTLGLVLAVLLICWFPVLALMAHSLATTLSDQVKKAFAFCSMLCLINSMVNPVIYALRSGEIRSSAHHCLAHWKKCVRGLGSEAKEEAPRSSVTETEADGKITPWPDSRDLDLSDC
Procedure: CB1 and CB2 receptor binding assays [^35S]GTPγS assays were performed as previously described. WOBE437 was profiled in more detail in an extended CNS adverse drug reaction screening panel (CEREP).

C57BL6/N mice = assay: Elevated plus maze (EPM); type: in vivo, mouse; conditions: 3 mg/kg
Procedure: WOBE437 was initially assessed in a battery of four individual tests typically associated with CB1 receptor activation in mice (nociception, locomotion, body temperature and cataleptic behavior), collectively referred to as the “tetrad”. Dose-response experiments identified 10 mg/kg as the lowest dose to elicit a moderate but complete tetrad in BALB/c mice upon intraperitoneal (i.p.) administration (FIGS. 3A-D). […] To assess whether the WOBE437-induced effects were CB1 receptor-mediated, mice were pre-treated with the selective antagonist/inverse agonist rimonabant (SR1). […] These experiments provided a proof-of-concept for the mechanism of action of WOBE437 as a novel “indirect CB1 receptor agonist”. In subsequent studies, the effects of WOBE437 in pain, inflammatory and anxiety models were investigated. […] Both effects were reversed by SR1.
WOBE437 and RX-055 were tested in independent laboratories, in different mouse strains and in multiple (behavioral) models for cannabimimetic, analgesic, anti-inflammatory and anxiolytic-effects in wild-type and phenotypical CB1-KO mice as described in Chicca 2017.

[3] = Microsomal clearance, human liver microsomes; type: in vitro ADME
Procedure: Human or mice microsome clearance experiment were carried out as according to a previously describe protocol. Briefly, microsome preparation (0.5 mg/mL) plus cofactor NADPH solution was incubated with 1 μM of WOBE437 in 96-well plates at 37° C. After 1, 3, 6, 9, 15, 25, 35 and 45 min, 40 μL of the preparation was transferred and quenched with 3:1 (v/v) acetonitrile containing internal standards. Samples were then cooled and centrifuged before analysis by LC-MS/MS. Log peak area ratios (test compound peak area/internal standard peak area) are plotted against incubation time using a linear fit. The calculated slope is used to determine the intrinsic clearance. Data are obtained from single experiments measured with multiple time-points.

BALB/c mice = assay: Complete Freund's adjuvant induced monoarthritis; type: in vivo, mouse
Procedure: BALB/c mice were anesthetized with xylazine/ketamine (5 and 10 mg/kg, respectively) and subsequently monoarthritis was induced by intra-articular injection of complete Freund's adjuvant (CFA, 40 μL; Sigma-Aldrich, St. Louis, USA) into the right knee joint. The inflammation was allowed to develop for 14 days prior to pharmacological treatments starting at day 15 for 1 or 3 days, respectively. Mechanical sensitivity (allodynia) and knee diameter (edema) were evaluated 1 h post treatment in the ipsilateral and contralateral knees. Articular sensitivity was evaluated using a digital algometer (Bioseb, USA). […] A cut-off force of 300 g was considered to avoid damage in the tissue. The measurements were done in triplicates and the average was considered for the statistical analysis. To evaluate the degree of inflammation, knee diameter was measured in both extremities using a digital micrometer (Mitutoyo, USA). WOBE437 was administered at doses of 2.5, 5 or 10 mg/kg, either as single dose or for 3 days treatment. To evaluate the involvement of CB1 and CB2 receptors, TRPV1 and PPARγ, rimonabant (5 mg/kg, CB1 receptor antagonist/inverse agonist), SR144528 (3 mg/kg, CB2 receptor antagonist/inverse agonist; Cayman Chemical, USA), capsazepine (5 mg/kg, TRPV1 antagonist; Tocris Bioscience, UK) and GW9662 (3 mg/kg, PPARγ antagonist; Tocris Bioscience, UK) were injected 30 min before WOBE437 administration. Indomethacin (5 mg/kg; Sigma-Aldrich, USA) was used as a reference drug (positive control). For all the compounds, dimethylsulfoxide (DMSO) was used as vehicle (20 μL, i.p.).

major serine hydrolases [4] = assay: Serine hydrolase activity in vivo; conditions: mouse

T1 sequence (Q8R2Y0 whole entry): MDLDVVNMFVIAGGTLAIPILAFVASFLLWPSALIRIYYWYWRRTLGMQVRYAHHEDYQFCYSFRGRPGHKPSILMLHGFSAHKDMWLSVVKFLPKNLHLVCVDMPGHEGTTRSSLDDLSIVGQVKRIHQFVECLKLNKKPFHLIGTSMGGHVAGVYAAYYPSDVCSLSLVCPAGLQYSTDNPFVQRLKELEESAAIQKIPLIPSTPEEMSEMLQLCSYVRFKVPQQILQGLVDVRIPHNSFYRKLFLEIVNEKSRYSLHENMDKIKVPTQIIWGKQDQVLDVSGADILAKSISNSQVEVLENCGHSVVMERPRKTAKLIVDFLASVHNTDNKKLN

CCCCCCC/C=C/C=C/C(=O)NCCc1ccc(OC)c(OC)c1 [WOBE437, (2E,4E)-N-[2-(3,4-Dimethoxyphenyl)ethyl]dodeca-2,4-dienamide]
inhibition of ABHD6 (ABHD6): did not inhibit
inhibition of major serine hydrolases (ABPP) (major serine hydrolases [1]): does not inhibit any of the major serine hydrolases
Kd [2]: 0.01 to 0.02 µM
Ki (CB2 receptor): 48 µM
anxiolytic effect after SR1 (C57BL6/N mice): completely blocked by SR1
number of entries and time spent in open arms (C57BL6/N mice; vs vehicle): significantly increased
clearance ([3]; 1 μM, preliminary): 0.657 mL/min/kg
bioavailability at 1 μM ([3]; human, humans, from microsomal clearance, read-out: estimated maximal bioavailability): 4%
antiallodynia and antiinflammatory effects after rimonabant, SR144528 or GW9662 pre-treatment (BALB/c mice; 10 mg/kg i.p., 3 days): fully abolished
reduction of inflammation (edema) (BALB/c mice; 10 mg/kg i.p., 3 days): 58%
reduction in allodynia (BALB/c mice; 10 mg/kg i.p., 3 days, as compared to contralateral knee): 52%
knee diameter (BALB/c mice; 10 mg/kg i.p., 3 days, vehicle 6.5±0.9, contralateral 4.5±0.3): 5.3±0.4 mm
allodynia after single dose (BALB/c mice; 10 mg/kg i.p., single dose): significantly decrease allodynia
antiallodynia effect after SR144528 (3 mg/kg) or capsazepine (5 mg/kg) pre-treatment (BALB/c mice; 10 mg/kg i.p., single dose): completely prevented
antiallodynia effect after rimonabant or GW9662 pre-treatment (BALB/c mice; 10 mg/kg i.p., single dose): did not block
allodynia and edema (BALB/c mice; 2.5 and 5.0 mg/kg i.p.): did not show any significant changes
inhibition of major serine hydrolases in vivo (major serine hydrolases [4]): did not inhibit
melting point: 112 °C
